# Results as given in patent publication US20240132498A1, “CRYSTALLINE FORMS OF 5-(3,4-DIFLUOROBENZYL)-8-((1R,4R)-4-METHYLCYCLOHEXYL)-6,9-DIOXO-2,5,8-TRIAZASPIRO[3.5]NONANE-2-CARBALDEHYDE” (Cytokinetics, Incorporated, priority 2022, published 2024).
# How the values were obtained:
# CYP3A4 [1] = biological target: T1, CYP3A4 (Homo sapiens, UniProt P08684); assay: Time-dependent inhibition of CYP450 enzymes in human liver microsomes: CYP3A4-M (midazolam probe); format: in vitro ADME; conditions: human, pooled human liver microsomes, CYP3A4-M (midazolam probe); for activity at 30 min, 25 µM / activity at 30 min, 50 µM: 30 minutes incubation, read-out: % Activity NADPH T30; for activity at 0 min, 25 µM / activity at 0 min, 50 µM: time zero, read-out: % Activity NADPH T0
# T1 construct: from tissue; host or cells: pooled human liver microsomes
# T1 sequence (P08684 whole entry): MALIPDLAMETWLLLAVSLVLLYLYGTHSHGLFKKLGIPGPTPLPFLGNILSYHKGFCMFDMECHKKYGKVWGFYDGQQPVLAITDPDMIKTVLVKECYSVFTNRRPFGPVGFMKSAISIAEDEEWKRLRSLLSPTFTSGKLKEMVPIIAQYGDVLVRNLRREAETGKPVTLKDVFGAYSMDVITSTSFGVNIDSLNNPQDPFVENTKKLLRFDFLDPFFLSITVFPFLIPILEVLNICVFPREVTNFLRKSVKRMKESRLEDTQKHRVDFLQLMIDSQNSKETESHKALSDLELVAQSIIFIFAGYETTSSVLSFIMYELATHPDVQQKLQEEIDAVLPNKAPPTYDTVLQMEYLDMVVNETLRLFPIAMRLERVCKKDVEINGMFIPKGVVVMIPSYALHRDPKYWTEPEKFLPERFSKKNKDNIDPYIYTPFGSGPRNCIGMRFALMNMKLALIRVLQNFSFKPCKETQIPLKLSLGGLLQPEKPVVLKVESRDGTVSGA
# Method: (§1) An assessment of the time-dependent Inhibitory Potential of the test compounds against Principal Human Cytochrome P450 Isozymes using Human Liver Microsomes was also carried out using standard methods (Grimm et al, Drug Metab. Dispos., Jul; 37(7):1355-70. doi: 10.1124/dmd.109.026716, 2009). Pooled human microsomes and selective CYP probe substrates were used for in vitro assessment of test compounds at 25 and 50 μM as time-dependent inhibitors of […] human hepatic cytochrome P450 isozymes (CYP1A2, 2B6, 2C9, 2C19, 2D6, and 3A4). LC-MS/MS was used to quantify metabolite formation. The inhibition of each P450 enzyme in human liver microsomes was measured as the percentage decrease in the activity of marker metabolite formation as measured by LC-MS/MS compared to non-inhibited controls (=100% activity) at time zero and after 30 minutes incubation. The occurrence of any time dependent inhibition was then expressed as the fold change in enzyme activity at time zero relative to the activity after 30 minutes incubation. The time dependent inhibition for the compound 5-(3,4-difluorobenzyl)-8-((1 r,4r)-4-methylcyclohexyl)-6,9-dioxo-2,5, 8-triazaspiro [3.5]nonane-2-carbaldehyde (Compound 1) against CYP1A2, […], CYP2C8, CYP2C9, CYP2C19, CYP2D6, CYP3A4-M and CYP3A4-T is shown in Table B-12.
# CYP3A4-M = biological target: T2, CYP3A4-M (Homo sapiens, UniProt P08684); assay: as above; format: in vitro ADME; conditions: for (% Activity NADPH T0)/(% Activity NADPH T30): CYP3A4-M (midazolam probe); for fold change in enzyme activity (time dependent inhibition), 3A4: human liver microsomes, midazolam probe, time zero vs 30 minutes incubation, 25 and 50 μM
# T2 construct: from tissue; host or cells: pooled human liver microsomes
# T2 sequence (P08684 whole entry): as above
# Method: as §1
# [2] = Dog single dose pharmacokinetics; format: in vivo; conditions: male, plasma, intravenous, beagle dogs; for Vd: read-out: Vss
# Method: Non-naïve male beagle dogs (8 months −3 years of age, body weight 8-13 kg) were used in this study. All animals for IV administration had free access to food and water; all animals for PO were fasted overnight prior to dosing and were fed approximately 6 hours after dosing. For the animals in PO group, pentagastrin (6.0 μg/kg, i.m.) was administrated 20 minutes before dosing PO formulation and 1.5 hours after the second pentagastrin dosing. The dosing volume was 0.024 mL/kg, the concentration was 250 μg/mL in DMSO/1 N NaOH/PBS. 10 mL of 0.001 N HCl was used to wash the gavage catheter for each animal. The IV dose solution was prepared in 10% DMA/50% PG/40% HPOCD solution (40% w/v aqueous HPOCD) at a concentration of 1.0 mg/mL. The oral dose suspension was prepared by suspending the compound in 0.5% HPMC/0.1% Tween 80 in distilled water at a concentration of 0.2 mg/mL. Concentrations of IV and PO doses were measured at the end of the study. PK parameters were calculated using the nominal dose values if the measured values were within 20% of the nominal values. Blood samples were collected by venipuncture of peripheral veins except the dosing vein at pre-dose, 5 15, 30 min, 1, 2, 4, 6, 8, 24 and 48 h post-dose. Blood samples were centrifuged and resultant plasma was frozen for bioanalysis. Plasma samples were stored at −80° C. before analysis. Plasma samples were analyzed for compound concentrations using the LC/MS/MS method. Briefly, a 50 μL aliquot of each plasma sample was mixed with 100 μL of acetonitrile that contained an internal standard. The mixture was vortexed and centrifuged. Ten (10) μL of the resulting solution was injected onto a reverse-phase C18 column and the resultant peaks detected on a LC/MS/MS equipped with a turbo ionspray ionization source. Sample concentrations below the limit of quantification (BLQ) were treated as zero for PK calculations. PK parameters were estimated from individual animals using noncompartmental analysis of the concentration-time data (Phoenix WinNonLin software, version 64; Pharsight, Mountain View, CA). The elimination rate constant (k) was calculated as the absolute value of the slope of the linear regression of logarithm (log) of the concentration versus time for the last three data points of the concentration-time profiles. Apparent elimination half-life (t1/2) values were calculated as 1n(2)/k. Area under the concentration-time curve (AUC) values were estimated using linear trapezoidal method. AUCt values were calculated from the dosing time to the last measurable concentration. AUC∞ values were calculated as the sum of the corresponding AUC and the ratio of the last detectable concentration divided by k. Plasma clearance (CL) was calculated from Dose/AUC∞. Mean resident time extrapolated to infinity (MRT∞) was estimated by moment analysis. VSS, was calculated from MRT∞×CL. Maximum concentration (Cmax) and time to reach Cmax (tmax) were recorded as observed. As this was a cross-over study, bioavailability was calculated dAUC∞,po/dAUC∞,iv×100% where dAUC was the dose normalized AUC value from the same animal given IV and PO dose. Compounds tested were prepared in accordance with the synthetic procedures described herein.
# CYP3A4-T = biological target: T3, CYP3A4-T (Homo sapiens, UniProt P08684); assay: Time-dependent inhibition of CYP450 enzymes in human liver microsomes: CYP3A4-T (testosterone probe); format: in vitro ADME; conditions: for (% Activity NADPH T0)/(% Activity NADPH T30): CYP3A4-T (testosterone probe); for fold change in enzyme activity (time dependent inhibition), 3A4: human liver microsomes, testosterone probe, time zero vs 30 minutes incubation, 25 and 50 μM
# T3 construct: from tissue; host or cells: pooled human liver microsomes
# T3 sequence (P08684 whole entry): as above
# Method: as §1
# CYP3A4 [3] = biological target: T1, CYP3A4; assay: as above; format: in vitro ADME; conditions: human, pooled human liver microsomes, CYP3A4-T (testosterone probe); for activity at 30 min, 25 µM / activity at 30 min, 50 µM: 30 minutes incubation, read-out: % Activity NADPH T30; for activity at 0 min, 25 µM / activity at 0 min, 50 µM: time zero, read-out: % Activity NADPH T0
# Method: as §1
"activity at 30 min, 25 µM (CYP3A4 [1])","activity at 0 min, 25 µM (CYP3A4 [1])","activity at 30 min, 50 µM (CYP3A4 [1])","activity at 0 min, 50 µM (CYP3A4 [1])",(% Activity NADPH T0)/(% Activity NADPH T30) (CYP3A4-M; 25 μM),(% Activity NADPH T0)/(% Activity NADPH T30) (CYP3A4-M; 50 μM),"fold change in enzyme activity (time dependent inhibition), 3A4 (CYP3A4-M)",clearance [2],Vd [2],(% Activity NADPH T0)/(% Activity NADPH T30) (CYP3A4-T; 25 μM),(% Activity NADPH T0)/(% Activity NADPH T30) (CYP3A4-T; 50 μM),"fold change in enzyme activity (time dependent inhibition), 3A4 (CYP3A4-T)","activity at 30 min, 25 µM (CYP3A4 [3])","activity at 0 min, 25 µM (CYP3A4 [3])","activity at 30 min, 50 µM (CYP3A4 [3])","activity at 0 min, 50 µM (CYP3A4 [3])",SMILES
88%,70%,78%,57%,0.8,0.7,≤ 1.2 fold,7.57 mL/min/kg,4.23 L/kg,0.9,0.8,≤ 1.2 fold,90%,80%,98%,83%,"C[C@H]1CC[C@H](N2CC(=O)N(Cc3ccc(F)c(F)c3)C3(CN(C=O)C3)C2=O)CC1 [Compound 1, 5-(3,4-difluorobenzyl)-8-((1r,4r)-4-methylcyclohexyl)-6,9-dioxo-2,5,8-triazaspiro[3.5]nonane-2-carbaldehyde]"
,,,,,,,3.55 mL/min/kg,6.7 L/kg,,,,,,,,"CC(=O)N1CC2(C1)C(=O)N(c1ccc(C#N)cc1F)CC(=O)N2Cc1ccc(C(F)(F)F)cc1 [Comparator D, 4-(2-acetyl-6,9-dioxo-5-(4-(trifluoromethyl)benzyl)-2,5,8-triazaspiro[3.5]nonan-8-yl)-3-fluorobenzonitrile]"
48%,75%,33%,57%,1.6,1.7,> 1.5 fold,4.92 mL/min/kg,5.91 L/kg,1.8,1.8,> 1.5 fold,23%,41%,19%,35%,"O=C1[C@H](C2COC2)N(Cc2ccc(C(F)(F)F)cc2)C(=O)CN1c1ncc(Cl)cc1F [Comparator C, (S)-1-(5-chloro-3-fluoropyridin-2-yl)-3-(oxetan-3-yl)-4-(4-(trifluoromethyl)benzyl)piperazine-2,5-dione, reference compound]"
,,,,,,,1.49 mL/min/kg,4.1 L/kg,,,,,,,,"O=CN1CC2(C1)C(=O)N([C@H]1CC[C@H](C(F)F)CC1)CC(=O)N2Cc1ccc(C(F)(F)F)cc1 [Comparator E, 8-((1r,4r)-4-(difluoromethyl)cyclohexyl)-6,9-dioxo-5-(4-(trifluoromethyl)benzyl)-2,5,8-triazaspiro[3.5]nonane-2-carbaldehyde]"
,,,,,,,1.59 mL/min/kg,5.2 L/kg,,,,,,,,"O=CN1CC2(C1)C(=O)N(c1ccc(F)cc1F)CC(=O)N2Cc1ccc(Cl)cc1 [Comparator A, 5-(4-chlorobenzyl)-8-(2,4-difluorophenyl)-6,9-dioxo-2,5,8-triazaspiro[3.5]nonane-2-carbaldehyde]"
